Test results published in patent US5840684A, “Glycopeptide antibiotic derivatives” (Eli Lilly and Company, priority 1995, dated 1998).
Values after ≈ are worked out from the molar mass of the structure shown.

Assays:
[1] = tested on: Staphylococcus aureus S13E; assay type: cell-based
Method: (§1) The MIC's were determined using a standard broth micro-dilution assay.

[2] = tested on: Staphylococcus aureus SA1199B; assay type: cell-based
Method: as §1

[3] = tested on: Staphylococcus epidermidis 270; test: broth micro-dilution MIC; assay type: cell-based
Method: (§2) The formula I compounds have in vitro and in vivo activity against Gram-positive pathogenic bacteria. The MIC's were determined using a standard broth micro-dilution assay.

[4] = tested on: Haemophilus influenzae RD; test: broth micro-dilution MIC; assay type: cell-based; details: Haemophilus influenzae RD
Method: as §2

[5] = tested on: Staphylococcus haemolyticus 105; test: broth micro-dilution MIC; assay type: cell-based
Method: as §2

[6] = tested on: Staphylococcus haemolyticus 415; test: broth micro-dilution MIC; assay type: cell-based
Method: as §2

[7] = tested on: Entercoccus faecium 2041; test: broth micro-dilution MIC; assay type: cell-based; details: Entercoccus faecium 2041
Method: as §2

[8] = tested on: Enterococcus gallinarum 245; test: broth micro-dilution MIC; assay type: cell-based; details: Enterococcus gallinarum 245
Method: as §2

[9] = tested on: Entercoccus faecium 180; test: broth micro-dilution MIC; assay type: cell-based; details: Entercoccus faecium 180
Method: as §2

[10] = tested on: vancomycin-resistant enterococci; test: broth micro-dilution, mean geometric MIC; assay type: cell-based, Enterococcus faecium and Enterococcus faecalis; details: enterococci, 24-hour incubation
[11] = tested on: vancomycin-susceptible enterococci; test: broth micro-dilution, mean geometric MIC; assay type: cell-based, Enterococcus faecium and Enterococcus faecalis; details: enterococci, 24-hour incubation
[12] = tested on: Staphylococcus aureus X778; test: broth micro-dilution MIC; assay type: cell-based
Method: as §1

[13] = tested on: Staphylococcus aureus SA1199; test: broth micro-dilution MIC; assay type: cell-based
Method: as §1

[14] = tested on: Staphylococcus aureus 491; test: broth micro-dilution MIC; assay type: cell-based
Method: as §1

[15] = tested on: Staphylococcus aureus 446; test: broth micro-dilution MIC; assay type: cell-based
Method: as §1

[16] = tested on: Staphylococcus aureus 489; test: broth micro-dilution MIC; assay type: cell-based
Method: as §1

[17] = tested on: Staphylococcus aureus X400; test: broth micro-dilution MIC; assay type: cell-based
Method: as §1

[18] = tested on: Staphylococcus aureus 447; test: broth micro-dilution MIC; assay type: cell-based
Method: as §1

[19] = tested on: Entercoccus faecium 276; test: broth micro-dilution MIC; assay type: cell-based
Method: as §1

[20] = tested on: Entercoccus faecium 180-1; test: broth micro-dilution MIC; assay type: cell-based
Method: as §1

[21] = tested on: Streptococcus pneumoniae P1; test: broth micro-dilution MIC; assay type: cell-based
Method: as §2

[22] = tested on: Staphylococcus aureus SA1199A; test: broth micro-dilution MIC; assay type: cell-based
Method: as §1

[23] = tested on: Streptococcus pyogenes C203; test: broth micro-dilution MIC; assay type: cell-based
Method: as §1

Row | Compound | MIC [1] | MIC [2] | MIC [3] | MIC [4] | MIC [5] | MIC [6] | MIC [7] | MIC [8] | MIC [9] | mean geometric MIC, Vancomycin Resistant Strains [10] | mean geometric MIC, Vancomycin Sensitive Strains [11] | MIC [12] | MIC [13] | MIC [14] | MIC [15] | MIC [16] | MIC [17] | MIC [18] | MIC [19] | MIC [20] | further results
1 | CNC(CC(C)C)C(=O)NC1C(=O)NC(CC(N)=O)C(=O)NC2C(=O)NC3C(=O)NC(C(=O)NC(C(=O)O)c4cc(O)cc(O)c4-c4cc3ccc4O)C(OC3CC(C)(N)C(O)C(C)O3)c3ccc(c(Cl)c3)Oc3cc2cc(c3OC2OC(CO)C(O)C(O)C2OC2CC(C)(NCCCCCCCCc3ccccc3)C(O)C(C)O2)Oc2ccc(cc2Cl)C1O (centres unmarked) [Compound 176] | 2 µg/mL (≈ 1.12 µM) | 1 µg/mL (≈ 0.562 µM) | 0.5 µg/mL (≈ 0.281 µM) | 8 µg/mL (≈ 4.49 µM) | 4 µg/mL (≈ 2.25 µM) | 2 µg/mL (≈ 1.12 µM) | 0.125 µg/mL (≈ 0.0702 µM) | 2 µg/mL (≈ 1.12 µM) | 2 µg/mL (≈ 1.12 µM) | 1.2 µg/mL | 0.13 µg/mL | 1 µg/mL (≈ 0.562 µM) | 2 µg/mL (≈ 1.12 µM) | 2 µg/mL (≈ 1.12 µM) | 2 µg/mL (≈ 1.12 µM) | 0.5 µg/mL (≈ 0.281 µM) | 1 µg/mL (≈ 0.562 µM) | 1 µg/mL (≈ 0.562 µM) | 2 µg/mL (≈ 1.12 µM) | ≤ 0.06 µg/mL | 
2 | CNC(CC(C)C)C(=O)NC1C(=O)NC(CC(N)=O)C(=O)NC2C(=O)NC3C(=O)NC(C(=O)NC(C(=O)O)c4cc(O)cc(O)c4-c4cc3ccc4O)C(OC3CC(C)(N)C(O)C(C)O3)c3ccc(c(Cl)c3)Oc3cc2cc(c3OC2OC(CO)C(O)C(O)C2OC2CC(C)(NCCCCCCCCBr)C(O)C(C)O2)Oc2ccc(cc2Cl)C1O (centres unmarked) [Compound 198] | 0.125 µg/mL (≈ 0.0701 µM) | 0.5 µg/mL (≈ 0.28 µM) | 0.25 µg/mL (≈ 0.14 µM) | 32 µg/mL (≈ 17.9 µM) | 0.5 µg/mL (≈ 0.28 µM) | 1 µg/mL (≈ 0.561 µM) | ≤ 0.06 µg/mL | 1 µg/mL (≈ 0.561 µM) | ≤ 0.06 µg/mL | 3.4 µg/mL | 0.062 µg/mL | 0.125 µg/mL (≈ 0.0701 µM) | 0.5 µg/mL (≈ 0.28 µM) | ≤ 0.06 µg/mL | 1 µg/mL (≈ 0.561 µM) | 0.125 µg/mL (≈ 0.0701 µM) | 0.5 µg/mL (≈ 0.28 µM) | 0.125 µg/mL (≈ 0.0701 µM) | 0.25 µg/mL (≈ 0.14 µM) | ≤ 0.06 µg/mL | MIC [21]: ≤ 0.06 µg/mL; MIC [22]: ≤ 0.06 µg/mL; MIC [23]: ≤ 0.06 µg/mL
3 | C=CCCCCCCCCNC1(C)CC(OC2C(Oc3c4cc5cc3Oc3ccc(cc3Cl)C(OC3CC(C)(N)C(O)C(C)O3)C3NC(=O)C(NC(=O)C5NC(=O)C(CC(N)=O)NC(=O)C(NC(=O)C(CC(C)C)NC)C(O)c5ccc(c(Cl)c5)O4)c4ccc(O)c(c4)-c4c(O)cc(O)cc4C(C(=O)O)NC3=O)OC(CO)C(O)C2O)OC(C)C1O (centres unmarked) [Compound 214] | 1 µg/mL (≈ 0.578 µM) | 1 µg/mL (≈ 0.578 µM) | ≤ 0.06 µg/mL | 32 µg/mL (≈ 18.5 µM) | 1 µg/mL (≈ 0.578 µM) | 2 µg/mL (≈ 1.16 µM) | 0.125 µg/mL (≈ 0.0722 µM) | 2 µg/mL (≈ 1.16 µM) | 0.25 µg/mL (≈ 0.144 µM) | 0.71 µg/mL | 0.024 µg/mL | 1 µg/mL (≈ 0.578 µM) | 0.5 µg/mL (≈ 0.289 µM) | 1 µg/mL (≈ 0.578 µM) | 1 µg/mL (≈ 0.578 µM) | 1 µg/mL (≈ 0.578 µM) | 0.5 µg/mL (≈ 0.289 µM) | 2 µg/mL (≈ 1.16 µM) | 0.25 µg/mL (≈ 0.144 µM) | ≤ 0.06 µg/mL | MIC [21]: ≤ 0.06 µg/mL; MIC [22]: 0.5 µg/mL (≈ 0.289 µM)
4 | CNC(CC(C)C)C(=O)NC1C(=O)NC(CC(N)=O)C(=O)NC2C(=O)NC3C(=O)NC(C(=O)NC(C(=O)O)c4cc(O)cc(O)c4-c4cc3ccc4O)C(OC3CC(C)(N)C(O)C(C)O3)c3ccc(c(Cl)c3)Oc3cc2cc(c3OC2OC(CO)C(O)C(O)C2OC2CC(C)(NCc3c4ccccc4c(C)c4ccccc34)C(O)C(C)O2)Oc2ccc(cc2Cl)C1O (centres unmarked) [Compound 17] | 1 µg/mL (≈ 0.557 µM) | 1 µg/mL (≈ 0.557 µM) | 4 µg/mL (≈ 2.23 µM) | 32 µg/mL (≈ 17.8 µM) | 8 µg/mL (≈ 4.45 µM) | 8 µg/mL (≈ 4.45 µM) | 0.25 µg/mL (≈ 0.139 µM) | 0.5 µg/mL (≈ 0.278 µM) | 2 µg/mL (≈ 1.11 µM) | 9.5 µg/mL | 0.38 µg/mL | 0.5 µg/mL (≈ 0.278 µM) | 4 µg/mL (≈ 2.23 µM) | 2 µg/mL (≈ 1.11 µM) | 2 µg/mL (≈ 1.11 µM) | 1 µg/mL (≈ 0.557 µM) | 0.5 µg/mL (≈ 0.278 µM) | 8 µg/mL (≈ 4.45 µM) | 0.5 µg/mL (≈ 0.278 µM) | ≤ 0.06 µg/mL | MIC [21]: ≤ 0.06 µg/mL; MIC [22]: ≤ 0.06 µg/mL; MIC [23]: ≤ 0.06 µg/mL
5 | CC#CCCCCCCCCCCNC1(C)CC(OC2C(Oc3c4cc5cc3Oc3ccc(cc3Cl)C(OC3CC(C)(N)C(O)C(C)O3)C3NC(=O)C(NC(=O)C5NC(=O)C(CC(N)=O)NC(=O)C(NC(=O)C(CC(C)C)NC)C(O)c5ccc(c(Cl)c5)O4)c4ccc(O)c(c4)-c4c(O)cc(O)cc4C(C(=O)O)NC3=O)OC(CO)C(O)C2O)OC(C)C1O (centres unmarked) [Compound 199] | 0.5 µg/mL (≈ 0.282 µM) | 1 µg/mL (≈ 0.565 µM) | 0.5 µg/mL (≈ 0.282 µM) | 32 µg/mL (≈ 18.1 µM) | 2 µg/mL (≈ 1.13 µM) | 4 µg/mL (≈ 2.26 µM) | ≤ 0.06 µg/mL | 4 µg/mL (≈ 2.26 µM) | 0.5 µg/mL (≈ 0.282 µM) | 1.4 µg/mL | 0.036 µg/mL | 1 µg/mL (≈ 0.565 µM) | 1 µg/mL (≈ 0.565 µM) | 0.5 µg/mL (≈ 0.282 µM) | 0.5 µg/mL (≈ 0.282 µM) | 2 µg/mL (≈ 1.13 µM) | 2 µg/mL (≈ 1.13 µM) | 1 µg/mL (≈ 0.565 µM) | 1 µg/mL (≈ 0.565 µM) | ≤ 0.06 µg/mL | MIC [21]: ≤ 0.06 µg/mL; MIC [23]: ≤ 0.06 µg/mL
6 | CNC(CC(C)C)C(=O)NC1C(=O)NC(CC(N)=O)C(=O)NC2C(=O)NC3C(=O)NC(C(=O)NC(C(=O)O)c4cc(O)cc(O)c4-c4cc3ccc4O)C(OC3CC(C)(N)C(O)C(C)O3)c3ccc(c(Cl)c3)Oc3cc2cc(c3OC2OC(CO)C(O)C(O)C2OC2CC(C)(NCCCCCCCCCC#Cc3ccccc3)C(O)C(C)O2)Oc2ccc(cc2Cl)C1O (centres unmarked) [Compound 236] | 4 µg/mL (≈ 2.2 µM) | 4 µg/mL (≈ 2.2 µM) | 2 µg/mL (≈ 1.1 µM) | 32 µg/mL (≈ 17.6 µM) | 4 µg/mL (≈ 2.2 µM) | 4 µg/mL (≈ 2.2 µM) | 1 µg/mL (≈ 0.55 µM) | 4 µg/mL (≈ 2.2 µM) | 1 µg/mL (≈ 0.55 µM) | 1.4 µg/mL | 0.5 µg/mL | 2 µg/mL (≈ 1.1 µM) | 4 µg/mL (≈ 2.2 µM) | 4 µg/mL (≈ 2.2 µM) | 1 µg/mL (≈ 0.55 µM) | 4 µg/mL (≈ 2.2 µM) | 2 µg/mL (≈ 1.1 µM) | 4 µg/mL (≈ 2.2 µM) | 2 µg/mL (≈ 1.1 µM) | 1 µg/mL (≈ 0.55 µM) | MIC [21]: ≤ 0.06 µg/mL; MIC [22]: 2 µg/mL (≈ 1.1 µM); MIC [23]: ≤ 0.06 µg/mL
7 | CNC(CC(C)C)C(=O)NC1C(=O)NC(CC(N)=O)C(=O)NC2C(=O)NC3C(=O)NC(C(=O)NC(C(=O)O)c4cc(O)cc(O)c4-c4cc3ccc4O)C(OC3CC(C)(N)C(O)C(C)O3)c3ccc(c(Cl)c3)Oc3cc2cc(c3OC2OC(CO)C(O)C(O)C2OC2CC(C)(NCc3ccc(Oc4ccc(Cl)c(Cl)c4)cc3)C(O)C(C)O2)Oc2ccc(cc2Cl)C1O (centres unmarked) [Compound 81] | 0.5 µg/mL (≈ 0.271 µM) | 1 µg/mL (≈ 0.542 µM) | 1 µg/mL (≈ 0.542 µM) | 16 µg/mL (≈ 8.68 µM) | 1 µg/mL (≈ 0.542 µM) | 4 µg/mL (≈ 2.17 µM) | ≤ 0.06 µg/mL | 0.25 µg/mL (≈ 0.136 µM) | ≤ 0.06 µg/mL | 1.0 µg/mL | 0.042 µg/mL | 1 µg/mL (≈ 0.542 µM) | 2 µg/mL (≈ 1.08 µM) | 1 µg/mL (≈ 0.542 µM) | 2 µg/mL (≈ 1.08 µM) | 2 µg/mL (≈ 1.08 µM) | 1 µg/mL (≈ 0.542 µM) | 2 µg/mL (≈ 1.08 µM) | ≤ 0.06 µg/mL |  | MIC [21]: ≤ 0.06 µg/mL; MIC [22]: 0.5 µg/mL (≈ 0.271 µM); MIC [23]: ≤ 0.06 µg/mL
